According to patent US20250145600A1, “2-((4-((S)-2-(4-CHLORO-2-FLUOROPHENYL)-2-METHYLBENZO[D][1,3]DIOXOL-4-YL)PIPERIDIN-1-YL)METHYL)-1-(((S)-OXETAN-2-YL)METHYL)-1H-IMIDAZOLE DERIVATIVES AS ACTIVATORS OF THE GLP1 RECEPTOR FOR THE TREATMENT OF OBESITY” (Novartis AG, priority 2022, published 2025):

Target: human GLP1R (hGLP1R) (Homo sapiens, UniProt P43220)
Test: Human GLP1R β-arrestin recruitment assay (PathHunter)
Type: cell-based
Set-up: insert synthesized by GeneArt 93-0164 (CHO-K1-EA parental cells); 93-0491 (pCMV PK vector bundle)
Details: CHO-hGLP1R-β-arrestin cells; for EC50: 2 h at 37° C., top concentration 30 μM, read-out: Beta-Arrestin assay EC50 Mean; for Emax: relative to GLP1(7-36), read-out: Beta-Arrestin assay Emax (%)
Protocol: Compounds of formula (I) according to the invention were tested in the following cellular assays that measure the intracellular cAMP concentration, beta-arrestin recruitment and receptor internalization. The cAMP is generated by the activation of GLP1R. The extent to which the GLP1R is internalized into the cell and away from the plasma membrane following activation is also shown in Table 2. EC50 for each assay is defined as the concentration of the compound that leads to half of the maximum response (after baseline correction). Emax is defined as the maximum response observed for the test compound, normalized to the maximum response observed for the endogenous ligand (GLP1(7-36)) to GLP1R.
Human GLP1R β-Arrestin Recruitment Assay
The extent to which agonists recruited β-arrestin was measured using the PathHunter® β-arrestin assay (DiscoverX). This assay measures binding of β-arrestin to the receptor using an enzyme complementation approach. […] When β-arrestin is recruited to the receptor the enzyme becomes active and generates luminescence in the presence of a chemiluminescent substrate (PathHunter® Detection Kit, DiscoverX cat #93-0001). Luminescence can be measured on a relevant detector. CHO-hGLP1R-β-arrestin cells stably overexpressing hGLP1R with Prolink tag and β-arrestin with EA tag were seeded at 20 μL per well in white 384-well poly-D-Lysine coated plates (Greiner Bio One, cat #781945) in Plating Reagent 2 (DiscoverX, cat #93-0563R^2A), and incubated overnight at 37° C., 5% CO2 with humidity. The following day, agonists were prepared at 5 times the final required concentration. To generate triplicate dose response curves, compounds were serially diluted 3-fold in assay buffer (HBSS, 10 mM Hepes and 0.1% BSA), then added to the cell assay plate to a final volume of 25 μL and final top concentrations starting at 30 μM. In the same plate and assay buffer as the tested compounds, were EC100 control wells containing GLP1 (7-36) peptide (Bachem, cat #H-6795) at a final concentration of 1 μM and also EC0 control wells containing no compound. The plate was incubated at 37° C., 5% CO2 with humidity for 2 h after adding the compounds to the cells. Then the detection reagent was prepared (19 parts cell assay buffer, 5 parts substrate reagent 1 and 1 part substrate reagent 2 as per manufacturers recommendations, DiscoverX cat #93-0001), and 12 μL were added per well to the cell assay plate. The plate was incubated for an additional hour in the dark at RT. Luminescence was then measured with an Envision 2104 Multilabel reader with “TRF Light Unit, 337 nm” (Perkin Elmer) using the Ultra-Sensitive protocol setting “384-well US luminescence detector” with the 384-well luminescence aperture, 0.1 sec per well. β-arrestin recruitment was calculated and expressed as percent of the GLP1 (7-36) EC100 control wells: [(sample signal−mean EC0 signal)/(mean EC100 of GLP1 (7-36) signal−mean EC0 signal)]*100 using Microsoft Excel. Curve fitting for EC50 determinations was performed using GraphPad Prism. The 4-parameter logistic model, Hill slope was used: Y=Bottom+(Top−Bottom)/(1+10^((Log EC50−X)*Hill Slope)), where Y is the functional response; X is the compound concentration; bottom is A0 or the minimum value (at 0 dose); top is Ainf or the maximum value (at infinite dose); EC50 is the point of inflection (i.e. the point on the sigmoid shaped curve halfway between A0 and Ainf). The EC50 value was calculated in μM. Emax is the maximal activity detected within the concentration range, derived from the fitted curve relative to GLP1(7-36).
PathHunter CHO-K1-EA parental cells (DiscoverX, cat #93-0164) were plated at a density of 2×10^6 cells per T75 cm^2 flask in 22 mL of complete medium (AssayComplete Cell Culture kit 107, DiscoverX, cat #92-3107G). The following day, the medium was replaced with 22 mL of fresh medium with no antibiotics and cells were transfected as follows. […]

human GLP1R (hGLP1R), sequence (P43220 24-463): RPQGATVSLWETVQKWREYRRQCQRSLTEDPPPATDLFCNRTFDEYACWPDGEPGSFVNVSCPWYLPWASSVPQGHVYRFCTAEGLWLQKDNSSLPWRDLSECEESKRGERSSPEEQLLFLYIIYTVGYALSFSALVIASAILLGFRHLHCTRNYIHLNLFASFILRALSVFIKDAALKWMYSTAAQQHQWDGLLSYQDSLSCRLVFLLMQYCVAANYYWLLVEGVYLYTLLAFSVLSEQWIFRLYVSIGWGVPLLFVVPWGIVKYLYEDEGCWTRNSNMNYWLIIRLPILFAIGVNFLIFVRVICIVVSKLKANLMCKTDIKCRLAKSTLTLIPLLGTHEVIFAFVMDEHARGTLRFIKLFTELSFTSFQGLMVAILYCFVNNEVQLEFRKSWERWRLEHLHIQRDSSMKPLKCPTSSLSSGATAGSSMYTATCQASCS

Compound | EC50 [µM] | Emax [%]
Cc1nc(CN2CCC(c3cccc4c3O[C@@](C)(c3ccc(Cl)cc3F)O4)CC2)n(C[C@@H]2CCO2)c1-c1nc(C(=O)O)c(C)o1 [Compound C-1, 2-(2-((4-((S)-2-(4-chloro-2-fluorophenyl)-2-methylbenzo[d][1,3]dioxol-4-yl)piperidin-1-yl)methyl)-4-methyl-1-(((S)-oxetan-2-yl)methyl)-1H-imidazol-5-yl)-5-methyloxazole-4-carboxylic acid] | > 30 | 2
C[C@]1(c2ccc(Cl)cc2F)Oc2cccc(C3CCN(Cc4nc(C(F)(F)F)c(-c5nc(C(=O)O)co5)n4C[C@@H]4CCO4)CC3)c2O1 [Compound C-4, 2-(2-((4-((S)-2-(4-chloro-2-fluorophenyl)-2-methylbenzo[d][1,3]dioxol-4-yl)piperidin-1-yl)methyl)-1-(((S)-oxetan-2-yl)methyl)-4-(trifluoromethyl)-1H-imidazol-5-yl)oxazole-4-carboxylic acid] | > 30 | 0
CCc1nc(CN2CCC(c3cccc4c3O[C@@](C)(c3ccc(Cl)cc3F)O4)CC2)n(C[C@@H]2CCO2)c1-c1nc(C(=O)O)co1 [Compound C-5, 2-(2-((4-((S)-2-(4-chloro-2-fluorophenyl)-2-methylbenzo[d][1,3]dioxol-4-yl)piperidin-1-yl)methyl)-4-ethyl-1-(((S)-oxetan-2-yl)methyl)-1H-imidazol-5-yl)oxazole-4-carboxylic acid] | > 30 | 0
CCc1nc(CN2CCC(c3cccc4c3O[C@@](C)(c3ccc(Cl)cc3F)O4)CC2)n(C[C@H]2CCO2)c1-c1nc(C(=O)O)co1 [Compound C-7, 2-(2-((4-((S)-2-(4-chloro-2-fluorophenyl)-2-methylbenzo[d][1,3]dioxol-4-yl)piperidin-1-yl)methyl)-4-ethyl-1-(((R)-oxetan-2-yl)methyl)-1H-imidazol-5-yl)oxazole-4-carboxylic acid] | > 30 | 5
Cc1nc(CN2CCC(c3cccc4c3O[C@@](C)(c3ccc(Cl)cc3F)O4)CC2)n(C[C@@H]2CCO2)c1-c1nc(C(=O)O)co1 [Compound C-9, 2-(2-((4-((S)-2-(4-chloro-2-fluorophenyl)-2-methylbenzo[d][1,3]dioxol-4-yl)piperidin-1-yl)methyl)-4-methyl-1-(((S)-oxetan-2-yl)methyl)-1H-imidazol-5-yl)oxazole-4-carboxylic acid] | > 30 | 0
CCc1oc(-c2c(C)nc(CN3CCC(c4cccc5c4O[C@@](C)(c4ccc(Cl)cc4F)O5)CC3)n2C[C@@H]2CCO2)nc1C(=O)O [Compound C-10, 2-(2-((4-((S)-2-(4-chloro-2-fluorophenyl)-2-methylbenzo[d][1,3]dioxol-4-yl)piperidin-1-yl)methyl)-4-methyl-1-(((S)-oxetan-2-yl)methyl)-1H-imidazol-5-yl)-5-ethyloxazole-4-carboxylic acid] | > 30 | 0
Cc1oc(-c2nc(CN3CCC(c4cccc5c4O[C@@](C)(c4ccc(Cl)cc4F)O5)CC3)n(C[C@@H]3CCO3)c2C)nc1C(=O)O [Compound C-12, 2-(2-((4-((S)-2-(4-chloro-2-fluorophenyl)-2-methylbenzo[d][1,3]dioxol-4-yl)piperidin-1-yl)methyl)-5-methyl-1-(((S)-oxetan-2-yl)methyl)-1H-imidazol-4-yl)-5-methyloxazole-4-carboxylic acid] | > 30 | 10
Cc1c(-c2nc(C(=O)O)co2)nc(CN2CCC(c3cccc4c3O[C@@](C)(c3ccc(Cl)cc3F)O4)CC2)n1C[C@@H]1CCO1 [Compound C-13, 2-(2-((4-((S)-2-(4-chloro-2-fluorophenyl)-2-methylbenzo[d][1,3]dioxol-4-yl)piperidin-1-yl)methyl)-5-methyl-1-(((S)-oxetan-2-yl)methyl)-1H-imidazol-4-yl)oxazole-4-carboxylic acid] | > 30 | 12
Cc1c(-c2nc(C(F)(F)F)c(C(=O)O)o2)nc(CN2CCC(c3cccc4c3O[C@@](C)(c3ccc(Cl)cc3F)O4)CC2)n1C[C@@H]1CCO1 [Compound C-14, 2-(2-((4-((S)-2-(4-chloro-2-fluorophenyl)-2-methylbenzo[d][1,3]dioxol-4-yl)piperidin-1-yl)methyl)-5-methyl-1-(((S)-oxetan-2-yl)methyl)-1H-imidazol-4-yl)-4-(trifluoromethyl)oxazole-5-carboxylic acid] | > 30 | 0
Cc1c(-c2cnc(C(=O)O)o2)nc(CN2CCC(c3cccc4c3O[C@@](C)(c3ccc(Cl)cc3F)O4)CC2)n1C[C@@H]1CCO1 [Compound C-16, 5-(2-((4-((S)-2-(4-chloro-2-fluorophenyl)-2-methylbenzo[d][1,3]dioxol-4-yl)piperidin-1-yl)methyl)-5-methyl-1-(((S)-oxetan-2-yl)methyl)-1H-imidazol-4-yl)oxazole-2-carboxylic acid] | > 30 | 11
Cc1c(-c2cc(C(=O)O)n(C)n2)nc(CN2CCC(c3cccc4c3O[C@@](C)(c3ccc(Cl)cc3F)O4)CC2)n1C[C@@H]1CCO1 [Compound C-17, 3-(2-((4-((S)-2-(4-chloro-2-fluorophenyl)-2-methylbenzo[d][1,3]dioxol-4-yl)piperidin-1-yl)methyl)-5-methyl-1-(((S)-oxetan-2-yl)methyl)-1H-imidazol-4-yl)-1-methyl-1H-pyrazole-5-carboxylic acid] | > 30 | 2
Cc1c(-c2coc(C(=O)O)n2)nc(CN2CCC(c3cccc4c3O[C@@](C)(c3ccc(Cl)cc3F)O4)CC2)n1C[C@@H]1CCO1 [Compound C-18, 4-(2-((4-((S)-2-(4-chloro-2-fluorophenyl)-2-methylbenzo[d][1,3]dioxol-4-yl)piperidin-1-yl)methyl)-5-methyl-1-(((S)-oxetan-2-yl)methyl)-1H-imidazol-4-yl)oxazole-2-carboxylic acid] | > 30 | 16
Cc1cc(-c2nc(CN3CCC(c4cccc5c4O[C@@](C)(c4ccc(Cl)cc4F)O5)CC3)n(C[C@@H]3CCO3)c2C)oc1C(=O)O [Compound C-19, 5-(2-((4-((S)-2-(4-chloro-2-fluorophenyl)-2-methylbenzo[d][1,3]dioxol-4-yl)piperidin-1-yl)methyl)-5-methyl-1-(((S)-oxetan-2-yl)methyl)-1H-imidazol-4-yl)-3-methylfuran-2-carboxylic acid] | > 30 | 7
Cc1nc(CN2CCC(c3cccc4c3O[C@@](C)(c3ccc(Cl)cc3F)O4)CC2)n(C[C@@H]2CCO2)c1-c1coc(C(=O)O)n1 [Compound C-20, 4-(2-((4-((S)-2-(4-chloro-2-fluorophenyl)-2-methylbenzo[d][1,3]dioxol-4-yl)piperidin-1-yl)methyl)-4-methyl-1-(((S)-oxetan-2-yl)methyl)-1H-imidazol-5-yl)oxazole-2-carboxylic acid] | > 30 | 0
Cc1nc(CN2CCC(c3cccc4c3O[C@@](C)(c3ccc(Cl)cc3F)O4)CC2)n(C[C@@H]2CCO2)c1-c1cc(C(=O)O)n(C)n1 [Compound C-21, 3-(2-((4-((S)-2-(4-chloro-2-fluorophenyl)-2-methylbenzo[d][1,3]dioxol-4-yl)piperidin-1-yl)methyl)-4-methyl-1-(((S)-oxetan-2-yl)methyl)-1H-imidazol-5-yl)-1-methyl-1H-pyrazole-5-carboxylic acid] | > 30 | 0
